Results from ChEMBL document CHEMBL1201861, “Genomics of Drug Sensitity in Cancer screening data, Wellcome Trust Sanger Institute”.

Assays:
[1] = test system: NCI-H2196; assay: cells; format: functional, cell-based, Homo sapiens; conditions: Homo sapiens, NCI-H2196;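 also: cell viability assay used as the readout of growth inhibition in NCI-H2196 cells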
Description: SANGER: Inhibition of human NCI-H2196 cell growth in a cell viability assay.

[2] = test system: HGC-27; assay: cells; format: functional, cell-based, Homo sapiens; conditions: Homo sapiens, HGC-27;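 also: growth inhibition of human HGC-27 cells, read out in a cell viability assay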
Description: SANGER: Inhibition of human HGC-27 cell growth in a cell viability assay.

[3] = test system: OE19; assay: cells; format: functional, cell-based, Homo sapiens; conditions: Homo sapiens, OE19;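 also: growth inhibition of OE19 cells, measured through a cell viability read-out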
Description: SANGER: Inhibition of human OE19 cell growth in a cell viability assay.

[4] = test system: COR-L279; assay: SANGER: Inhibition of human COR-L279 cell growth in a cell viability assay.; format: functional, cell-based; conditions: Homo sapiens, COR-L279
[5] = test system: RPMI-7951; assay: cells; format: functional, cell-based, Homo sapiens; conditions: Homo sapiens, RPMI-7951
Description: SANGER: Inhibition of human RPMI-7951 cell growth in a cell viability assay.

[6] = test system: LP-1; assay: cells; format: functional, cell-based, Homo sapiens; conditions: Homo sapiens, LP-1;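 also: growth inhibition of human LP-1 cells, with the read-out taken from a cell viability assay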
Description: SANGER: Inhibition of human LP-1 cell growth in a cell viability assay.

[7] = test system: HuCCT-1; assay: cells; format: functional, cell-based, Homo sapiens, HuCCT1; conditions: Homo sapiens, HuCCT-1;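 also: growth inhibition of HuCCT-1 cells, read out by a cell viability assay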
Description: SANGER: Inhibition of human HuCCT1 cell growth in a cell viability assay.

[8] = test system: DG-75; assay: cells; format: functional, cell-based, Homo sapiens; conditions: Homo sapiens, DG-75;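 also: growth inhibition of DG-75 cells, read out with a cell viability assay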
Description: SANGER: Inhibition of human DG-75 cell growth in a cell viability assay.

[9] = test system: A-427; assay: cells; format: functional, cell-based, Homo sapiens; conditions: Homo sapiens, A-427;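 also: growth inhibition of human A-427 cells, read out by a cell viability assay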
Description: SANGER: Inhibition of human A427 cell growth in a cell viability assay.

[10] = test system: BXPC-3; assay: cells; format: functional, cell-based, Homo sapiens; conditions: Homo sapiens, BXPC-3;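 also: growth inhibition of human BxPC-3 cells, read out by a cell viability assay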
Description: SANGER: Inhibition of human BxPC-3 cell growth in a cell viability assay.

[11] = test system: BL-41; assay: cells; format: functional, cell-based, Homo sapiens; conditions: Homo sapiens, BL-41;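 also: growth inhibition of human BL-41 cells, read out with a cell viability assay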
Description: SANGER: Inhibition of human BL-41 cell growth in a cell viability assay.

[12] = test system: SW1573; assay: cells; format: functional, cell-based, Homo sapiens; conditions: Homo sapiens, SW1573;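 also: growth inhibition of SW1573 cells, read out with a cell viability assay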
Description: SANGER: Inhibition of human SW1573 cell growth in a cell viability assay.

[13] = test system: COLO-679; assay: cells; format: functional, cell-based, Homo sapiens; conditions: Homo sapiens, COLO-679
Description: SANGER: Inhibition of human COLO-679 cell growth in a cell viability assay.

[14] = test system: PC-3; assay: cells; format: functional, cell-based, Homo sapiens; conditions: Homo sapiens, PC-3
Description: SANGER: Inhibition of human PC-3 cell growth in a cell viability assay.

[15] = test system: CWR22R; assay: cells; format: functional, cell-based, Homo sapiens; conditions: Homo sapiens, 22Rv1;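 also: growth inhibition of 22Rv1 cells, read out with a cell viability assay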
Description: SANGER: Inhibition of human 22RV1 cell growth in a cell viability assay.

[16] = test system: NCI-H1436; assay: cells; format: functional, cell-based, Homo sapiens; conditions: Homo sapiens, NCI-H1436;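 also: growth suppression of human NCI-H1436 cells, determined with a cell viability readout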
Description: SANGER: Inhibition of human NCI-H1436 cell growth in a cell viability assay.

[17] = test system: OVCAR-8; assay: cells; format: functional, cell-based, Homo sapiens; conditions: Homo sapiens, OVCAR-8;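 also: growth inhibition of human OVCAR-8 cells, read out by a cell viability assay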
Description: SANGER: Inhibition of human OVCAR-8 cell growth in a cell viability assay.

[18] = test system: ST486; assay: SANGER: Inhibition of human ST486 cell growth in a cell viability assay.; format: functional, cell-based; conditions: Homo sapiens, ST486
[19] = test system: HuP-T3; assay: cells; format: functional, cell-based, Homo sapiens; conditions: Homo sapiens, HuP-T3;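 also: HuP-T3 cell growth inhibition, read out with a cell viability assay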
Description: SANGER: Inhibition of human HuP-T3 cell growth in a cell viability assay.

[20] = test system: MHH-CALL-2; assay: cells; format: functional, cell-based, Homo sapiens; conditions: Homo sapiens, MHH-CALL-2;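 also: growth inhibition of the cell line, read out in a cell viability assay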
Description: SANGER: Inhibition of human MHH-CALL-2 cell growth in a cell viability assay.

[21] = test system: Raji; assay: cells; format: functional, cell-based, Homo sapiens; conditions: Homo sapiens, Raji;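 also: cell viability assay measuring inhibition of Raji cell growth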
Description: SANGER: Inhibition of human Raji cell growth in a cell viability assay.

[22] = test system: CAL-33; assay: cells; format: functional, cell-based, Homo sapiens; conditions: Homo sapiens, CAL-33;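 also: growth inhibition of CAL-33 cells, read out with a cell viability assay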
Description: SANGER: Inhibition of human CAL-33 cell growth in a cell viability assay.

[23] = test system: KYSE-140; assay: cells; format: functional, cell-based, Homo sapiens; conditions: Homo sapiens, KYSE-140;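 also: cell viability assay measuring growth inhibition in human KYSE-140 cells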
Description: SANGER: Inhibition of human KYSE-140 cell growth in a cell viability assay.

[24] = test system: SW837; assay: cells; format: functional, cell-based, Homo sapiens; conditions: Homo sapiens, SW837;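 also: growth inhibition of SW837 cells, determined with a cell viability assay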
Description: SANGER: Inhibition of human SW837 cell growth in a cell viability assay.

[25] = test system: K052; assay: cells; format: functional, cell-based, Homo sapiens; conditions: Homo sapiens, K052;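 also: Read-out from a cell viability assay, IC50 reflecting suppression of K052 cell growth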
Description: SANGER: Inhibition of human K052 cell growth in a cell viability assay.

[26] = test system: SW-620; assay: cells; format: functional, cell-based, Homo sapiens; conditions: Homo sapiens, SW-620;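 also: growth inhibition of human SW-620 cells, measured by a cell viability assay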
Description: SANGER: Inhibition of human SW620 cell growth in a cell viability assay.

[27] = test system: HT-3; assay: cells; format: functional, cell-based, Homo sapiens; conditions: Homo sapiens, HT-3;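 also: growth inhibition measured with a cell viability readout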
Description: SANGER: Inhibition of human HT-3 cell growth in a cell viability assay.

[28] = test system: KYSE-510; assay: cells; format: functional, cell-based, Homo sapiens; conditions: Homo sapiens, KYSE-510;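 also: cell viability readout used to measure how strongly growth of the cell line is suppressed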
Description: SANGER: Inhibition of human KYSE-510 cell growth in a cell viability assay.

[29] = test system: UACC-812; assay: cells; format: functional, cell-based, Homo sapiens; conditions: Homo sapiens, UACC-812
Description: SANGER: Inhibition of human UACC-812 cell growth in a cell viability assay.

[30] = test system: NCI-H810; assay: cells; format: functional, cell-based, Homo sapiens; conditions: Homo sapiens, NCI-H810;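 also: IC50 reflects inhibition of cancer cell line growth, read out with a cell viability assay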
Description: SANGER: Inhibition of human NCI-H810 cell growth in a cell viability assay.

[31] = test system: KARPAS-422; assay: cells; format: functional, cell-based, Homo sapiens; conditions: Homo sapiens, KARPAS-422
Description: SANGER: Inhibition of human KARPAS-422 cell growth in a cell viability assay.

[32] = test system: OE33; assay: cells; format: functional, cell-based, Homo sapiens; conditions: Homo sapiens, OE33;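 also: growth inhibition of human OE33 cells, measured by a cell viability assay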
Description: SANGER: Inhibition of human OE33 cell growth in a cell viability assay.

[33] = test system: PF-382; assay: cells; format: functional, cell-based, Homo sapiens; conditions: Homo sapiens, PF-382
Description: SANGER: Inhibition of human PF-382 cell growth in a cell viability assay.

[34] = test system: NCI-H1882; assay: cells; format: functional, cell-based, Homo sapiens; conditions: Homo sapiens, NCI-H1882;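 also: growth inhibition of the cell line, determined with a viability assay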
Description: SANGER: Inhibition of human NCI-H1882 cell growth in a cell viability assay.

[35] = test system: HCC1954; assay: cells; format: functional, cell-based, Homo sapiens; conditions: Homo sapiens, HCC1954;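 also: growth inhibition of human HCC1954 cells, read out with a cell viability assay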
Description: SANGER: Inhibition of human HCC1954 cell growth in a cell viability assay.

[36] = test system: MDA-MB-134-VI; assay: cells; format: functional, cell-based, Homo sapiens; conditions: Homo sapiens, MDA-MB-134-VI
Description: SANGER: Inhibition of human MDA-MB-134-VI cell growth in a cell viability assay.

[37] = test system: LoVo; assay: cells; format: functional, cell-based, Homo sapiens; conditions: Homo sapiens, LoVo;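 also: growth inhibition of human LoVo cells, read out with a cell viability assay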
Description: SANGER: Inhibition of human LoVo cell growth in a cell viability assay.

[38] = test system: NCI-H1651; assay: cells; format: functional, cell-based, Homo sapiens; conditions: Homo sapiens, NCI-H1651;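 also: Read-out is a cell viability assay, with IC50 expressing inhibition of NCI-H1651 cell growth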
Description: SANGER: Inhibition of human NCI-H1651 cell growth in a cell viability assay.

[39] = test system: NCI-H292; assay: cells; format: functional, cell-based, Homo sapiens; conditions: Homo sapiens, NCI-H292;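 also: growth inhibition of NCI-H292 cells, read out with a cell viability assay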
Description: SANGER: Inhibition of human NCI-H292 cell growth in a cell viability assay.

[40] = test system: COLO-678; assay: cells; format: functional, cell-based, Homo sapiens; conditions: Homo sapiens, COLO-678
Description: SANGER: Inhibition of human COLO-678 cell growth in a cell viability assay.

[41] = test system: SAS; assay: cells; format: functional, cell-based, Homo sapiens; conditions: Homo sapiens, SAS;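 also: growth inhibition of SAS cells, read out with a cell viability assay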
Description: SANGER: Inhibition of human SAS cell growth in a cell viability assay.

[42] = test system: HN; assay: cells; format: functional, cell-based, Homo sapiens; conditions: Homo sapiens, HN
Description: SANGER: Inhibition of human HN cell growth in a cell viability assay.

[43] = test system: NCI-H1417; assay: cells; format: functional, cell-based, Homo sapiens; conditions: Homo sapiens, NCI-H1417;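 also: human NCI-H1417 cells, growth inhibition determined with a cell viability readout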
Description: SANGER: Inhibition of human NCI-H1417 cell growth in a cell viability assay.

[44] = test system: HCC1599; assay: cells; format: functional, cell-based, Homo sapiens; conditions: Homo sapiens, HCC1599;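 also: growth inhibition of HCC1599 cells, read out in a cell viability assay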
Description: SANGER: Inhibition of human HCC1599 cell growth in a cell viability assay.

[45] = test system: 769-P; assay: cells; format: functional, cell-based, Homo sapiens; conditions: Homo sapiens, 769-P
Description: SANGER: Inhibition of human 769-P cell growth in a cell viability assay.

[46] = test system: SR; assay: cells; format: functional, cell-based, Homo sapiens; conditions: Homo sapiens, SR
Description: SANGER: Inhibition of human SR cell growth in a cell viability assay.

[47] = test system: REH; assay: cells; format: functional, cell-based, Homo sapiens; conditions: Homo sapiens, REH;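 also: growth inhibition of REH cells determined with a cell viability read-out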
Description: SANGER: Inhibition of human REH cell growth in a cell viability assay.

Measured: IC50

N#Cc1c(O)c2c(-c3ccc(-c4ccccc4O)cc3)csc2[nH]c1=O
0.248 µM: [1]
0.59 µM: [16]
0.253 µM: [4]
0.791 µM: [25]
0.67 µM: [21]
0.114 µM: [46]
0.104 µM: [47]
0.409 µM: [34]
0.344 µM: [31]
0.189 µM: [11]
0.0859 µM: [33]
0.135 µM: [18]
0.278 µM: [44]
0.439 µM: [43]
> 1.02 µM: all other assays above

Nc1ccn([C@@H]2O[C@H](CO)[C@@H](O)C2(F)F)c(=O)n1 [GEMCITABINE]
0.702 µM: [3]
0.146 µM: [19]
0.0205 µM: [41]
0.0144 µM: [11]
0.0145 µM: [47]
1.02 µM: [20]
0.0824 µM: [34]
0.00212 µM: [46]
0.0096 µM: [2]
0.0539 µM: [4]
0.00571 µM: [37]
0.0276 µM: [24]
0.0612 µM: [32]
0.431 µM: [21]
0.0079 µM: [17]
0.00941 µM: [18]
0.0858 µM: [31]
0.0541 µM: [42]
< 0.004 µM: [5] | [28] | [45]
0.324 µM: [9]
0.0206 µM: [7]
0.0101 µM: [13]
0.0965 µM: [15]
0.457 µM: [12]
0.00135 µM: [26]
0.137 µM: [25]
0.00189 µM: [22]
0.0211 µM: [38]
0.0279 µM: [23]
0.0702 µM: [44]
0.0442 µM: [33]
0.0208 µM: [39]
0.00856 µM: [30]
0.0369 µM: [10]
0.201 µM: [27]
> 1.02 µM: all other assays above

Oc1ccc2ccccc2c1SSc1c(O)ccc2ccccc12
3.37 µM: [47]
5.35 µM: [33]
3.1 µM: [11]
30.5 µM: [6]
20.1 µM: [7]
7.84 µM: [31]
4.87 µM: [18]
5.37 µM: [46]
17.2 µM: [2]
28.7 µM: [13]
> 32 µM: all other assays above

O=C(O)c1ccc(-c2c[nH]c3ncc(-c4ccccc4)cc23)cc1C1CCCC1 [GSK-650394]
9.91 µM: [37]
1.88 µM: [9]
5.3 µM: [13]
1.31 µM: [2]
8.09 µM: [23]
11.3 µM: [17]
4.97 µM: [32]
9.96 µM: [22]
4.89 µM: [45]
2.13 µM: [28]
1.93 µM: [26]
> 16 µM: all other assays above

C=C(c1ccc(C(=O)O)cc1)c1cc2c(cc1C)C(C)(C)CCC2(C)C [BEXAROTENE]
5.92 µM: [37]
5.97 µM: [9]
> 8 µM: all other assays above
